Test results taken from US6943172B2, “Rho-kinase inhibitors” (Bayer Pharmaceuticals Corporation, priority 2002, dated 2005).

- melting point: 181 to 186 °C
SMILES: CCc1cc(Nc2ccc(Sc3ccncc3)cc2)nc(N)n1 [Example 42, N-(2-amino-6-ethyl-4-pyrimidinyl)-N-[4-(4-pyridinylsulfanyl)phenyl]amine]
